The structures appear in SMILES notation.

Sequence of Alpha-glucosidase MAL12 (P53341 whole entry): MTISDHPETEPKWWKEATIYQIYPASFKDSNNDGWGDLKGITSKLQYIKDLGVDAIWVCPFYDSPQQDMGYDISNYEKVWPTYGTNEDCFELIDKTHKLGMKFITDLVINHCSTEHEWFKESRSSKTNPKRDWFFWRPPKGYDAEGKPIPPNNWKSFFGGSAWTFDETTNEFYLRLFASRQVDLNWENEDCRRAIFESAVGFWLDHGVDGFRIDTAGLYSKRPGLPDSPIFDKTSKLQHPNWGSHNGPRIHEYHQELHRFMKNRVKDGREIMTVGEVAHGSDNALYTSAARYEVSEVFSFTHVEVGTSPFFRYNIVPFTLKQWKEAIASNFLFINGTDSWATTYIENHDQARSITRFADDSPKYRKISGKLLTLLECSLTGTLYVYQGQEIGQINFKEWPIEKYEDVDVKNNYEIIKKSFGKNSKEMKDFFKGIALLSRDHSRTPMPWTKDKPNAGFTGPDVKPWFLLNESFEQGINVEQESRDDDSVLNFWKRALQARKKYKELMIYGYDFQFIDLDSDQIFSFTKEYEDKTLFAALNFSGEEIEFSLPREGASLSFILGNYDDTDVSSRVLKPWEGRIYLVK

The assay has as its target Alpha-glucosidase MAL12 (Saccharomyces cerevisiae (strain ATCC 204508 / S288c), UniProt P53341). As to the kind of experiment: Baker's Yeast α-Glucosidase Inhibition Assay. Particulars: pH 6.8. The procedure: The enzyme inhibition was evaluated according to the method previously reported by Rahim et al. [25] with slight modification. Various concentration of test compounds (10 µL) were dissolved in DMSO (ranging from 200 to 6.25 µg/mL) and premixed with 95 µL of 50 mM phosphate buffer (pH 6.8). Then, 25 µL of enzyme(0.0625 U/mL) in phosphate buffer saline was added into each well and the plate was incubated at 37 °C for 10 min. Afterward, 25 µl of PNPG in phosphate buffer saline (5 mM) were added and pre-read of the plate was taken by using a microplate reader (Spectrostar Nano BMG Labtech, Germany). The reaction mixture was then incubated at 37 °C for 30 min and change in absorbance at 405 nm was monitored up to 30 min. For negative control, the test samples were replaced with 10 µL of DMSO and acarbose was used as positive control
What is called IC50 is the concentration at which inhibition is half-maximal. Low readings indicate inhibition by little substance, high ones a need for much substance. `Cc1cc2nc(-c3ccc(C(=O)N/N=C/c4ccccn4)cc3)[nH]c2cc1C` [(E)-4-(5,6-dimethyl-1H-benzo[d]imidazol-2-yl)-N'-(pyridin-2-ylmethylene) benzohydrazide (18)] yielded an IC50 of 25.7 µM.
Then `Cc1cc2nc(-c3ccc(C(=O)N/N=C/c4cc(O)c(O)c(O)c4)cc3)[nH]c2cc1C` [(E)-4-(5,6-dimethyl-1H-benzo[d]imidazol-2-yl)-N'-(3,4,5-trihydroxybenzylidene) benzohydrazide (19)], with 8.4 µM.
To `COc1ccc(/C=N/NC(=O)c2ccc(-c3nc4cc(C)c(C)cc4[nH]3)cc2)c(O)c1` [(E)-4-(5,6-dimethyl-1H-benzo[d]imidazol-2-yl)-N'-(2-hydroxy-4-methoxybenzylidene) benzohydrazide (10)] belongs 8.44 µM; to `Cc1cc2nc(-c3ccc(C(=O)N/N=C\c4ccc(Cl)cc4)cc3)[nH]c2cc1C` [(Z)-N'-(4-chlorobenzylidene)-4-(5,6-dimethyl-1H-benzo[d]imidazol-2-yl)benzohydrazide (22)], 24.8 µM.
`Cc1cc2nc(-c3ccc(C(=O)N/N=C/c4ccco4)cc3)[nH]c2cc1C` [(E)-4-(5,6-dimethyl-1H-benzo[d]imidazol-2-yl)-N'-(furan-2-ylmethylene) benzohydrazide (21)] displayed an IC50 of 32.1 µM.
Then `Cc1cc2nc(-c3ccc(C(=O)N/N=C/c4cc(O)ccc4O)cc3)[nH]c2cc1C` [(E)-N'-(2,5-dihydroxybenzylidene)-4-(5,6-dimethyl-1H-benzo[d]imidazol-2-yl) benzohydrazide (4)], with 8.74 µM; and `Cc1cc2nc(-c3ccc(C(=O)N/N=C/c4ccc(O)cc4O)cc3)[nH]c2cc1C` [(E)-N'-(2,4-dihydroxybenzylidene)-4-(5,6-dimethyl-1H-benzo[d]imidazol-2-yl) benzohydrazide (6)], with 8.74 µM.
In turn, `Cc1cc2nc(-c3ccc(C(=O)N/N=C/c4cccc(O)c4)cc3)[nH]c2cc1C` [(E)-4-(5,6-dimethyl-1H-benzo[d]imidazol-2-yl)-N'-(3-hydroxybenzylidene) benzohydrazide (2)] displayed an IC50 of 32.5 µM. Compared with the last compound, the IC50 is about 3.7-fold higher.
To `COc1ccc(/C=N/NC(=O)c2ccc(-c3nc4cc(C)c(C)cc4[nH]3)cc2)cc1` [(E)-4-(5,6-dimethyl-1H-benzo[d]imidazol-2-yl)-N'-(4-methoxybenzylidene) benzohydrazide (20)] belongs 32.6 µM.
`COc1ccc(O)c(/C=N/NC(=O)c2ccc(-c3nc4cc(C)c(C)cc4[nH]3)cc2)c1` [(E)-4-(5,6-dimethyl-1H-benzo[d]imidazol-2-yl)-N'-(pyridin-4-ylmethylene) benzohydrazide (12)] displayed an IC50 of 8.44 µM.
Then `Cc1cc2nc(-c3ccc(C(=O)N/N=C/c4cccc(F)c4)cc3)[nH]c2cc1C` [(E)-4-(5,6-dimethyl-1H-benzo[d]imidazol-2-yl)-N'-(3-fluorobenzylidene) benzohydrazide (26)], with 158 µM; and `COc1ccc(/C=N/NC(=O)c2ccc(-c3nc4cc(C)c(C)cc4[nH]3)cc2)cc1O` [(E)-4-(5,6-dimethyl-1H-benzo[d]imidazol-2-yl)-N'-(3-hydroxy-4-methoxybenzylidene) benzohydrazide (9)], with 29 µM; and `Cc1cc2nc(-c3ccc(C(=O)N/N=C/c4cccc(Cl)c4)cc3)[nH]c2cc1C` [(E)-N'-(3-chlorobenzylidene)-4-(5,6-dimethyl-1H-benzo[d]imidazol-2-yl) benzohydrazide (8)], with 22.4 µM.
The compound `Cc1cccc(/C=N/NC(=O)c2ccc(-c3nc4cc(C)c(C)cc4[nH]3)cc2)c1` [(E)-4-(5,6-dimethyl-1H-benzo[d]imidazol-2-yl)-N'-(3-methylbenzylidene) benzohydrazide (14)] registered an IC50 of 23.5 µM.
Regarding `Cc1cc2nc(-c3ccc(C(=O)N/N=C/c4ccc(O)c(O)c4)cc3)[nH]c2cc1C` [(E)-N'-(3,4-dihydroxybenzylidene)-4-(5,6-dimethyl-1H-benzo[d]imidazol-2-yl) benzohydrazide (7)], inhibition was half-maximal at 12.5 µM (IC50).
To `Cc1cc2nc(-c3ccc(C(=O)N/N=C/c4cccc(O)c4O)cc3)[nH]c2cc1C` [(E)-N'-(2,3-dihydroxybenzylidene)-4-(5,6-dimethyl-1H-benzo[d]imidazol-2-yl)benzohydrazide (5)] belongs 9.99 µM.
Compound `COc1ccc(/C=N/NC(=O)c2ccc(-c3nc4cc(C)c(C)cc4[nH]3)cc2)cc1OC` [(E)-N'-(3,4-dimethoxybenzylidene)-4-(5,6-dimethyl-1H-benzo[d]imidazol-2-yl)benzohydrazide (3)] showed an IC50 of 180 µM.
To `Cc1cc2nc(-c3ccc(C(=O)N/N=C/c4ccccc4O)cc3)[nH]c2cc1C` [(E)-4-(5,6-dimethyl-1H-benzo[d]imidazol-2-yl)-N'-(2-hydroxybenzylidene) benzohydrazide (15)] belongs 18.2 µM; to `Cc1cc2nc(-c3ccc(C(=O)N/N=C/c4ccccc4C)cc3)[nH]c2cc1C` [(E)-4-(5,6-dimethyl-1H-benzo[d]imidazol-2-yl)-N'-(2-methylbenzylidene) benzohydrazide (13)], 24.8 µM; to `Cc1cc2nc(-c3ccc(C(=O)N/N=C/c4ccncc4)cc3)[nH]c2cc1C` [(E)-4-(5,6-dimethyl-1H-benzo[d]imidazol-2-yl)-N'-(pyridin-4-ylmethylene) benzohydrazide (11)], 148 µM.
Then `Cc1cc2nc(-c3ccc(C(=O)N/N=C/c4ccc(O)cc4)cc3)[nH]c2cc1C` [(E)-4-(5,6-dimethyl-1H-benzo[d]imidazol-2-yl)-N'-(4-hydroxybenzylidene) benzohydrazide (1)], with 26 µM.
To `COc1cccc(/C=N/NC(=O)c2ccc(-c3nc4cc(C)c(C)cc4[nH]3)cc2)c1` [(E)-4-(5,6-dimethyl-1H-benzo[d]imidazol-2-yl)-N'-(3-methoxybenzylidene) benzohydrazide (24)] belongs 15.1 µM.
The compound `Cc1cc2nc(-c3ccc(C(=O)N/N=C/c4ccc(O)c(Br)c4)cc3)[nH]c2cc1C` [(E)-N'-(3-bromo-4-hydroxybenzylidene)-4-(5,6-dimethyl-1H-benzo[d]imidazol-2-yl)benzohydrazide (17)] gave an IC50 of 34.5 µM. Against the preceding compound, the IC50 is about 2.3-fold higher.
To `Cc1cc2nc(-c3ccc(C(=O)N/N=C/c4ccc([N+](=O)[O-])cc4)cc3)[nH]c2cc1C` [(E)-4-(5,6-dimethyl-1H-benzo[d]imidazol-2-yl)-N'-(4-nitrobenzylidene) benzohydrazide (25)] belongs 19.3 µM.
Take `Cc1cc2nc(-c3ccc(C(=O)N/N=C/c4cccnc4)cc3)[nH]c2cc1C` [(E)-4-(5,6-dimethyl-1H-benzo[d]imidazol-2-yl)-N'-(pyridin-3-ylmethylene) benzohydrazide (23)]: half-maximal inhibition (IC50) required 46 µM.
`Cc1ccc(/C=N/NC(=O)c2ccc(-c3nc4cc(C)c(C)cc4[nH]3)cc2)cc1` [(E)-4-(5,6-dimethyl-1H-benzo[d]imidazol-2-yl)-N'-(4-methylbenzylidene) benzohydrazide (16)] showed an IC50 of 18.3 µM. This IC50 lies about 2.5-fold lower than the previous one.

The record behind these values is BindingDB's records for doi:10.1016/j.bioorg.2015.11.006 (Universiti Teknologi Mara (Uitm), 2016).
